Laboratory results: ChEMBL document CHEMBL5321213, “Nicolaioidesin C: An Antiausterity Agent Shows Promising Antitumor Activity in a Pancreatic Cancer Xenograft Mouse Model” (J Nat Prod, 2023)
Calls of active or inactive are those of the source. The rule behind the calls is not given here.

Key:
MIA PaCa-2 [1] = assay: Antitumor activity against human MIA PaCa-2 cells xenografted in athymic BALB/c-nu mouse assessed as fold change in 2,6-diaminopimelicacid level in tumor at 2 mg/kg/day, ip administered five times per week for 4 weeks by LC-MS analysis; type: functional
PANC-1 [2] = assay: Inhibition of Akt/mTOR signaling pathway in human PANC-1 cells in DMEM media assessed as reduction in AKT phosphorylation at S473 residue at 5 to 20 uM measured after 6 hrs by Western blot analysis; type: cell-based; settings: dose 5-20 µM
MIA PaCa-2 [3] = assay: Antitumor activity against human MIA PaCa-2 cells xenografted in athymic BALB/c-nu mouse assessed as fold change in D-glucuronic acid level in tumor at 2 mg/kg/day, ip administered five times per week for 4 weeks by LC-MS analysis; type: functional
MIA PaCa-2 [4] = assay: Antitumor activity against human MIA PaCa-2 cells xenografted in athymic BALB/c-nu mouse assessed as fold change in tetramethyl urea level in tumor at 2 mg/kg/day, ip administered five times per week for 4 weeks by LC-MS analysis; type: functional
MIA PaCa-2 [5] = assay: Antitumor activity against human MIA PaCa-2 cells xenografted in athymic BALB/c-nu mouse assessed as fold change in glutamic acid level in tumor at 2 mg/kg/day, ip administered five times per week for 4 weeks by LC-MS analysis; type: functional
MIA PaCa-2 [6] = assay: Antitumor activity against human MIA PaCa-2 cells xenografted in athymic BALB/c-nu mouse assessed as fold change in alanine level in tumor at 10 mg/kg/day, ip administered five times per week for 4 weeks by LC-MS analysis; type: functional
MIA PaCa-2 [7] = assay: Antitumor activity against human MIA PaCa-2 cells xenografted in athymic BALB/c-nu mouse assessed as fold change in sphinganine level in tumor at 2 mg/kg/day, ip administered five times per week for 4 weeks by LC-MS analysis; type: functional
MIA PaCa-2 [8] = assay: Antitumor activity against human MIA PaCa-2 cells xenografted in athymic BALB/c-nu mouse assessed as fold change in serine level in tumor at 10 mg/kg/day, ip administered five times per week for 4 weeks by LC-MS analysis; type: functional
PANC-1 [9] = assay: Preferential cytotoxicity against human PANC-1 cells in nutrient-deprived medium assessed as alteration in cell morphology by measuring rupture of cell membrane at 5 uM measured after 24 hrs by acridine orange and ethidium bromide dual fluorescent staining based imaging analysis; type: functional
MIA PaCa-2 [10] = assay: Antitumor activity against human MIA PaCa-2 cells xenografted in athymic BALB/c-nu mouse assessed as fold change in D-ribulose5-phosphate level in tumor at 10 mg/kg/day, ip administered five times per week for 4 weeks by LC-MS analysis; type: functional
MIA PaCa-2 [11] = assay: Preferential cytotoxicity against human MIA PaCa-2 cells in nutrient-deprived medium assessed as alteration in cell morphology by measuring leakage of cell components at 5 uM measured after 24 hrs by acridine orange and ethidium bromide dual fluorescent staining based imaging analysis; type: functional
PANC-1 [12] = assay: Preferential cytotoxicity against human PANC-1 cells in nutrient-deprived medium measured after 24 hrs by WST-8 cell counting analysis; type: functional
MIA PaCa-2 [13] = assay: Antitumor activity against human MIA PaCa-2 cells xenografted in athymic BALB/c-nu mouse assessed as fold change in cytidine diphosphate ethanolamine level in tumor at 2 mg/kg/day, ip administered five times per week for 4 weeks by LC-MS analysis; type: functional
PANC-1 [14] = assay: Inhibition of Akt/mTOR signaling pathway in human PANC-1 cells in DMEM media assessed as reduction in mTOR phosphorylation at S2481 residue at 5 to 20 uM measured after 6 hrs by Western blot analysis; type: cell-based; settings: dose 5-20 µM
MIA PaCa-2 [15] = assay: Antitumor activity against human MIA PaCa-2 cells xenografted in athymic BALB/c-nu mouse assessed as fold change in N-acetylneuraminic acid level in tumor at 2 mg/kg/day, ip administered five times per week for 4 weeks by LC-MS analysis; type: functional
MIA PaCa-2 [16] = assay: Antitumor activity against human MIA PaCa-2 cells xenografted in athymic BALB/c-nu mouse assessed as fold change in nicotinamide level in tumor at 2 mg/kg/day, ip administered five times per week for 4 weeks by LC-MS analysis; type: functional
MIA PaCa-2 [17] = assay: Antitumor activity against human MIA PaCa-2 cells xenografted in athymic BALB/c-nu mouse assessed as fold change in 2,6-diaminopimelicacid level in tumor at 10 mg/kg/day, ip administered five times per week for 4 weeks by LC-MS analysis; type: functional
MIA PaCa-2 [18] = assay: Antitumor activity against human MIA PaCa-2 cells xenografted in athymic BALB/c-nu mouse assessed as fold change in methionine level in tumor at 2 mg/kg/day, ip administered five times per week for 4 weeks by LC-MS analysis; type: functional
MIA PaCa-2 [19] = assay: Antitumor activity against human MIA PaCa-2 cells xenografted in athymic BALB/c-nu mouse assessed as fold change in serine level in tumor at 2 mg/kg/day, ip administered five times per week for 4 weeks by LC-MS analysis; type: functional
MIA PaCa-2 [20] = assay: Antitumor activity against human MIA PaCa-2 cells xenografted in athymic BALB/c-nu mouse assessed as fold change in 5'-methylthioadenosine level in tumor at 10 mg/kg/day, ip administered five times per week for 4 weeks by LC-MS analysis; type: functional
MIA PaCa-2 [21] = assay: Antitumor activity against human MIA PaCa-2 cells xenografted in athymic BALB/c-nu mouse assessed as fold change in N-acetyl-L-glutamicacid level in tumor at 10 mg/kg/day, ip administered five times per week for 4 weeks by LC-MS analysis; type: functional
MIA PaCa-2 [22] = assay: Antitumor activity against human MIA PaCa-2 cells xenografted in athymic BALB/c-nu mouse assessed as fold change in biotin level in tumor at 10 mg/kg/day, ip administered five times per week for 4 weeks by LC-MS analysis; type: functional
MIA PaCa-2 [23] = assay: Antitumor activity against human MIA PaCa-2 cells xenografted in athymic BALB/c-nu mouse assessed as fold change in 4-(methylthio)-2-oxobutyricacid level in tumor at 10 mg/kg/day, ip administered five times per week for 4 weeks by LC-MS analysis; type: functional
MIA PaCa-2 [24] = assay: Antitumor activity against human MIA PaCa-2 cells xenografted in athymic BALB/c-nu mouse assessed as reduction in LC3-1 level in tumor at 2 to 10 mg/kg/day, ip administered five times per week for 4 weeks by immunohistochemistry analysis; type: functional, organism-based; settings: dose 2-10 mg/kg/day
MIA PaCa-2 [25] = assay: Antitumor activity against human MIA PaCa-2 cells xenografted in athymic BALB/c-nu mouse assessed as fold change in sphinganine level in tumor at 10 mg/kg/day, ip administered five times per week for 4 weeks by LC-MS analysis; type: functional
MIA PaCa-2 [26] = assay: Antitumor activity against human MIA PaCa-2 cells xenografted in athymic BALB/c-nu mouse assessed as fold change in valine level in tumor at 10 mg/kg/day, ip administered five times per week for 4 weeks by LC-MS analysis; type: functional
PANC-1 [27] = assay: Inhibition of Akt/mTOR signaling pathway in human PANC-1 cells in nutrient-deprived medium assessed as reduction in mTOR phosphorylation at S2481 residue measured after 6 hrs by Western blot analysis; type: cell-based; settings: dose 5-20 µM
MIA PaCa-2 [28] = assay: Antitumor activity against human MIA PaCa-2 cells xenografted in athymic BALB/c-nu mouse assessed as fold change in cytidine level in tumor at 10 mg/kg/day, ip administered five times per week for 4 weeks by LC-MS analysis; type: functional

Q: With `COc1cc(O)c(C(=O)[C@@H]2CC=C(CCC=C(C)C)C[C@H]2c2ccccc2)c(O)c1` as the molecule, how does the “fold change (FC)” value (MIA PaCa-2 [1]) read?
A: 0.53

Q: What about the inhibition (PANC-1 [2]) of the same molecule?
A: inactive

Q: And the “fold change (FC)” value (MIA PaCa-2 [3])?
A: 1.03

Q: What about the “fold change (FC)” value (MIA PaCa-2 [4]) of the same molecule?
A: 0.76

Q: What about the “fold change (FC)” value (MIA PaCa-2 [5]) of the same molecule?
A: 0.41

Q: And the “fold change (FC)” value (MIA PaCa-2 [6])?
A: 0.42

Q: And the “fold change (FC)” value (MIA PaCa-2 [7])?
A: 1.87

Q: And the “fold change (FC)” value (MIA PaCa-2 [8])?
A: 0.5

Q: What about the Activity (PANC-1 [9]) of the same molecule?
A: Active

Q: What about the “fold change (FC)” value (MIA PaCa-2 [10]) of the same molecule?
A: 0.22

Q: What about the Activity (MIA PaCa-2 [11]) of the same molecule?
A: Active

Q: What about the PC50 (PANC-1 [12]) of the same molecule?
A: 3.4 µM

Q: And the “fold change (FC)” value (MIA PaCa-2 [13])?
A: 0.4

Q: What about the inhibition (PANC-1 [14]) of the same molecule?
A: inactive

Q: And the “fold change (FC)” value (MIA PaCa-2 [15])?
A: 0.33

Q: And the “fold change (FC)” value (MIA PaCa-2 [16])?
A: 0.52

Q: And the “fold change (FC)” value (MIA PaCa-2 [17])?
A: 0.36

Q: And the “fold change (FC)” value (MIA PaCa-2 [18])?
A: 0.44

Q: And the “fold change (FC)” value (MIA PaCa-2 [19])?
A: 0.49

Q: What about the “fold change (FC)” value (MIA PaCa-2 [20]) of the same molecule?
A: 0.25

Q: What about the “fold change (FC)” value (MIA PaCa-2 [21]) of the same molecule?
A: 0.28

Q: What about the “fold change (FC)” value (MIA PaCa-2 [22]) of the same molecule?
A: 0.43

Q: What about the “fold change (FC)” value (MIA PaCa-2 [23]) of the same molecule?
A: 0.41

Q: And the Activity (MIA PaCa-2 [24])?
A: Active

Q: What about the “fold change (FC)” value (MIA PaCa-2 [25]) of the same molecule?
A: 3.68

Q: And the “fold change (FC)” value (MIA PaCa-2 [26])?
A: 0.47

Q: And the inhibition (PANC-1 [27])?
A: Dose-Dependent Effect

Q: What about the “fold change (FC)” value (MIA PaCa-2 [28]) of the same molecule?
A: 0.35
